Measured values taken from the NIST ThermoML archive (doi:10.1016/j.jct.2010.05.002).
Numbers after ± are expanded uncertainties.

Assay: molar heat capacity at constant pressure
Conditions: 101.33 kPa, Crystal, Vacuum adiabatic calorimetry

CC(C)(C)c1ccc(-c2ccccc2)cc1 [4-(1,1-dimethylethyl)-1,1'-biphenyl]
Conditions	molar heat capacity at constant pressure [J/K/mol]
8.3 K	2.522 ± 0.2
8.57 K	2.757 ± 0.22
9.11 K	3.228 ± 0.23
9.63 K	3.765 ± 0.26
9.89 K	4.01 ± 0.27
11.01 K	5.257 ± 0.32
11.39 K	5.703 ± 0.33
11.77 K	6.312 ± 0.36
12.15 K	6.72 ± 0.39
12.53 K	7.182 ± 0.4
12.92 K	7.664 ± 0.42
13.28 K	8.377 ± 0.44
13.65 K	8.833 ± 0.46
14.02 K	9.436 ± 0.49
14.39 K	9.935 ± 0.48
14.75 K	10.39 ± 0.52
15.11 K	10.96 ± 0.54
15.48 K	11.37 ± 0.55
15.83 K	12.26 ± 0.58
16.19 K	12.78 ± 0.61
16.55 K	13.21 ± 0.64
16.91 K	13.77 ± 0.65
17.27 K	14.49 ± 0.67
17.62 K	15.23 ± 0.7
17.98 K	15.86 ± 0.71
18.33 K	16.18 ± 0.73
18.68 K	16.71 ± 0.74
19.03 K	16.98 ± 0.75
19.38 K	17.88 ± 0.79
19.73 K	18.48 ± 0.82
20.08 K	19.01 ± 0.85
20.76 K	20.23 ± 0.88
21.53 K	21.57 ± 0.93
22.31 K	22.77 ± 0.96
23.08 K	23.92 ± 1
23.85 K	25.18 ± 1.1
24.62 K	26.43 ± 1.1
25.38 K	27.38 ± 1.1
26.14 K	28.32 ± 1.2
26.9 K	30.11 ± 1.3
27.66 K	31.35 ± 1.3
28.42 K	32.53 ± 1.3
29.17 K	33.54 ± 1.4
29.93 K	34.42 ± 1.4
30.68 K	35.96 ± 0.82
31.43 K	37.32 ± 0.82
32.19 K	38.43 ± 0.8
32.96 K	38.73 ± 0.82
33.71 K	40.37 ± 0.89
34.46 K	41.38 ± 0.86
35.21 K	42.08 ± 0.89
35.96 K	43.44 ± 0.94
36.71 K	44.59 ± 0.95
37.46 K	45.86 ± 0.96
38.21 K	46.57 ± 0.97
38.96 K	47.65 ± 0.99
39.71 K	48.45 ± 0.99
40.46 K	49.16 ± 1
41.21 K	50.62 ± 1.1
41.95 K	51.64 ± 1.1
42.7 K	52.5 ± 1.1
43.45 K	53.06 ± 1.1
44.2 K	53.77 ± 1.1
44.95 K	55.03 ± 1.1
45.69 K	55.67 ± 1.2
46.44 K	57.1 ± 1.2
47.19 K	57.29 ± 1.2
47.93 K	58.61 ± 1.2
48.68 K	59.76 ± 1.2
49.43 K	60.29 ± 1.2
50.18 K	60.84 ± 1.2
50.92 K	61.9 ± 1.3
51.67 K	62.56 ± 1.3
52.42 K	63.33 ± 1.3
53.16 K	64.3 ± 1.3
53.91 K	65.39 ± 1.3
54.65 K	65.94 ± 1.3
55.4 K	66.72 ± 1.4
56.14 K	67.31 ± 1.4
56.89 K	68.21 ± 1.4
57.64 K	68.36 ± 1.4
58.38 K	69.38 ± 1.4
59.12 K	69.98 ± 1.4
59.86 K	70.84 ± 1.4
60.61 K	71.8 ± 1.5
61.35 K	72.22 ± 1.5
62.09 K	73.3 ± 1.5
62.83 K	73.97 ± 1.5
63.57 K	75.16 ± 1.5
64.31 K	75.92 ± 1.5
65.06 K	76.6 ± 1.6
65.8 K	77.49 ± 1.6
66.54 K	77.97 ± 1.6
67.27 K	79.07 ± 1.6
68.02 K	79.18 ± 1.6
68.76 K	79.62 ± 1.6
69.49 K	80.06 ± 1.6
70.22 K	80.55 ± 1.6
71.11 K	81.26 ± 1.6
72.16 K	81.97 ± 1.7
73.2 K	83.77 ± 1.7
74.24 K	85.78 ± 1.8
75.29 K	87.62 ± 1.8
76.33 K	89.61 ± 1.8
77.37 K	91.7 ± 1.9
78.41 K	93.86 ± 1.9
78.6 K	93.38 ± 1.9
79.46 K	95.29 ± 1.9
79.89 K	95.59 ± 1.9
80.5 K	96.68 ± 0.64
80.92 K	97.16 ± 0.69
81.55 K	97.38 ± 0.65
81.96 K	98.92 ± 0.67
82.59 K	99.16 ± 0.7
82.99 K	99.71 ± 0.67
83.63 K	100.81 ± 0.71
84.02 K	101.38 ± 0.73
84.67 K	102.6 ± 0.74
85.05 K	103.37 ± 0.74
85.71 K	104.76 ± 0.78
86.08 K	105.1 ± 0.78
87.11 K	107.71 ± 0.77
88.14 K	109.06 ± 0.69
89.18 K	109.08 ± 0.69
90.21 K	110.43 ± 0.75
91.24 K	111.94 ± 0.74
92.26 K	112.49 ± 0.73
93.29 K	113.67 ± 0.76
94.32 K	115.2 ± 0.77
95.34 K	116.2 ± 0.76
96.36 K	117.24 ± 0.75
97.39 K	117.75 ± 0.78
98.41 K	119.69 ± 0.83
99.44 K	121.4 ± 0.76
100.46 K	120.13 ± 0.76
101.48 K	122.02 ± 0.83
102.5 K	123.38 ± 0.79
103.53 K	123.38 ± 0.79
104.55 K	124.78 ± 0.82
105.57 K	125.7 ± 0.8
106.59 K	125.94 ± 0.79
107.6 K	126.55 ± 0.81
108.62 K	127.46 ± 0.84
109.63 K	129.07 ± 0.86
110.65 K	130.3 ± 0.82
111.66 K	130.29 ± 0.82
112.67 K	130.99 ± 0.83
113.68 K	131.82 ± 0.85
114.69 K	132.86 ± 0.85
115.71 K	133.48 ± 0.84
116.72 K	133.98 ± 0.84
117.73 K	134.55 ± 0.85
118.74 K	135.11 ± 0.86
119.75 K	136.16 ± 0.87
120.76 K	136.83 ± 0.86
121.76 K	137.18 ± 0.86
122.77 K	138 ± 0.88
123.77 K	138.81 ± 0.89
124.78 K	139.92 ± 0.89
125.78 K	140.34 ± 0.88
126.79 K	141.2 ± 0.9
127.78 K	141.96 ± 0.9
128.78 K	142.63 ± 0.9
129.78 K	143.1 ± 0.92
130.78 K	144.73 ± 0.93
131.78 K	145.34 ± 0.91
132.78 K	145.71 ± 0.91
133.78 K	146.29 ± 0.92
134.78 K	147.05 ± 0.92
135.77 K	147.52 ± 0.93
136.77 K	148.34 ± 0.94
137.77 K	149.37 ± 0.94
138.76 K	149.38 ± 0.94
139.75 K	150.91 ± 0.98
140.74 K	152.15 ± 0.97
141.74 K	153 ± 0.96
142.73 K	153.45 ± 0.96
143.7 K	153.84 ± 0.97
144.69 K	154.76 ± 0.97
145.68 K	154.88 ± 0.97
146.67 K	155.86 ± 1
147.65 K	157.44 ± 1
148.64 K	158.13 ± 1
149.63 K	159.37 ± 0.99
150.61 K	159.11 ± 1
151.59 K	161.68 ± 1
152.58 K	161.75 ± 1
153.56 K	162.27 ± 1
154.54 K	162.57 ± 1
155.52 K	163.19 ± 1
